This note sets out measurements from the supplement of paper PMC8967900.

Molecules are shown by their SMILES.
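Also: ALL cell lines in 384-well plates, five doses spanning 10,000-fold, each plate scaled between vehicle and 100 µmol/L benzalkonium chloride controls, sDSS an adapted area-under-curve metric.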

The first assay relates to ALL-SIL. The experiment in a line: selective drug sensitivity score (sDSS, relative to normal bone marrow) (sDSS (score)); higher = more potent and effective on the cell line relative to normal bone marrow cells. As to conditions: 72 h.
`Cc1ccc(C(=O)Nc2cccc(C(F)(F)F)c2)cc1Nc1nc(-c2cccnc2)nc2c1cnn2C` [NVP-BHG712] (top concentration 10000 nM): the “selective drug sensitivity score” value turned out to be 13.3.
For the compound `COC[C@H](NC(=O)c1cnc(C)s1)C(=O)N[C@@H](COC)C(=O)N[C@@H](Cc1ccccc1)C(=O)[C@@]1(C)CO1` [Oprozomib] (top concentration 2500 nM), the “selective drug sensitivity score” value is -0.1.
The same measure, in the same setting: next, `Cc1ccc(C(=O)N(CCCN)[C@@H](c2oc3cc(Cl)ccc3c(=O)c2Cc2ccccc2)C(C)C)cc1` (top concentration 100 nM): 1.06; `CCn1c(C(=O)N(C2CC2)C2CC2)cc2c3c(ncn3C)c(Nc3cc(C)n(C)n3)nc21` (top concentration 10000 nM): -4.36; `Nc1nc(Cl)nc2c1ncn2[C@@H]1O[C@H](CO)[C@@H](O)[C@@H]1F` [Clofarabine] (top concentration 10000 nM): 4.9.
Same read-out and setting: as for `Cc1ccc(C(=O)Nc2ccc(Oc3cc4cnn(C)c4cc3-c3cn[nH]c3)c(F)c2)c(=O)n1-c1ccc(F)cc1` [Merestinib] (top concentration 1000 nM), the figure is 0.28; as for `Nc1ncn([C@@H]2O[C@H](CO)[C@@H](O)[C@H]2O)c(=O)n1` [Azacitidine] (top concentration 10000 nM), 5.94.
As for `CC(C)c1cc(-c2n[nH]c(=O)n2-c2ccc3c(ccn3C)c2)c(O)cc1O` [Ganetespib] (top concentration 1000 nM), the “selective drug sensitivity score” value amounted to 1.14.
As for `C[C@]1(c2nc3c(C(N)=O)cccc3[nH]2)CCCN1` [Veliparib] (top concentration 10000 nM), the “selective drug sensitivity score” value was -4.18.

Another assay concerns COG-LL-317. The description is as above. As to conditions: 72 h.
Regarding `C/C=C1\NC(=O)[C@H]2CSSCC/C=C/[C@H](CC(=O)N[C@H](C(C)C)C(=O)N2)OC(=O)[C@H](C(C)C)NC1=O` [Romidepsin] (top concentration 1000 nM), the “selective drug sensitivity score” value is 0.76.
On the same count and under the same terms, as for `CN(C)CCOc1ccc(/C(=C(/CCCl)c2ccccc2)c2ccccc2)cc1` [Toremifene] (top concentration 10000 nM), the figure is -0.22.
Consider `CCCCc1nc2cc(/C=C/C(=O)NO)ccc2n1CCN(CC)CC` [Pracinostat] (top concentration 10000 nM), for which the “selective drug sensitivity score” value was determined as 3.88.
For the compound `Cn1ncc(Cl)c1-c1cc(C(=O)N[C@H](CN)Cc2cccc(F)c2)sc1Cl` [Afuresertib] (top concentration 1000 nM), the “selective drug sensitivity score” value amounted to 5.26.
Turning to `Cc1cc(-c2nc(-c3ccc(OC(F)(F)F)cc3)no2)nn1Cc1ccnc(N2CCN(C3CC3)CC2)c1` [BAY_87-2243] (top concentration 1000 nM), the “selective drug sensitivity score” value was -0.96.
With `CNc1nc(-c2ccc3c(N)n[nH]c3c2)cc(N2C[C@@H](C(=O)NC3CCCCC3)CC[C@H]2C)n1` (top concentration 10000 nM), the “selective drug sensitivity score” value was -0.14.
In the case of `CN1CC[C@H](c2c(O)cc(O)c3c(=O)cc(-c4ccccc4Cl)oc23)[C@H](O)C1` [Alvocidib] (top concentration 10000 nM), the “selective drug sensitivity score” value is 1.7.
Turning to `Cc1cc2c(C(C)C)c(O)c(O)c(C=O)c2c(O)c1-c1c(C)cc2c(C(C)C)c(O)c(O)c(C=O)c2c1O` [AT-101] (top concentration 100000 nM), the “selective drug sensitivity score” value was 8.08.
Consider `Cc1ccc(C(=O)Nc2cccc(C(F)(F)F)c2)cc1Nc1nc(-c2cccnc2)nc2c1cnn2C` [NVP-BHG712] (top concentration 10000 nM), for which the “selective drug sensitivity score” value amounted to 1.48.
For `COC[C@H](NC(=O)c1cnc(C)s1)C(=O)N[C@@H](COC)C(=O)N[C@@H](Cc1ccccc1)C(=O)[C@@]1(C)CO1` [Oprozomib] (top concentration 2500 nM), the “selective drug sensitivity score” value stood at 7.9.
With `Cc1ccc(C(=O)N(CCCN)[C@@H](c2oc3cc(Cl)ccc3c(=O)c2Cc2ccccc2)C(C)C)cc1` (top concentration 100 nM), the “selective drug sensitivity score” value is 1.16.
Consider `CCn1c(C(=O)N(C2CC2)C2CC2)cc2c3c(ncn3C)c(Nc3cc(C)n(C)n3)nc21` (top concentration 10000 nM), for which the “selective drug sensitivity score” value was -4.36.
For `Nc1nc(Cl)nc2c1ncn2[C@@H]1O[C@H](CO)[C@@H](O)[C@@H]1F` [Clofarabine] (top concentration 10000 nM), the “selective drug sensitivity score” value was found to be 7.1.
Regarding `Cc1ccc(C(=O)Nc2ccc(Oc3cc4cnn(C)c4cc3-c3cn[nH]c3)c(F)c2)c(=O)n1-c1ccc(F)cc1` [Merestinib] (top concentration 1000 nM), the “selective drug sensitivity score” value is -0.62.
Turning to `Nc1ncn([C@@H]2O[C@H](CO)[C@@H](O)[C@H]2O)c(=O)n1` [Azacitidine] (top concentration 10000 nM), the “selective drug sensitivity score” value stood at 7.74.
As to `CC(C)c1cc(-c2n[nH]c(=O)n2-c2ccc3c(ccn3C)c2)c(O)cc1O` [Ganetespib] (top concentration 1000 nM), the “selective drug sensitivity score” value turned out to be 8.64.
For `C[C@]1(c2nc3c(C(N)=O)cccc3[nH]2)CCCN1` [Veliparib] (top concentration 10000 nM), the “selective drug sensitivity score” value was 1.72.

In a further assay the test system is COG-LL-355h. The description is as above. As to conditions: 72 h.
`C/C=C1\NC(=O)[C@H]2CSSCC/C=C/[C@H](CC(=O)N[C@H](C(C)C)C(=O)N2)OC(=O)[C@H](C(C)C)NC1=O` [Romidepsin] (top concentration 1000 nM): the “selective drug sensitivity score” value is -0.54.
Take `CN(C)CCOc1ccc(/C(=C(/CCCl)c2ccccc2)c2ccccc2)cc1` [Toremifene] (top concentration 10000 nM): the “selective drug sensitivity score” value is 2.28.
On to `CCCCc1nc2cc(/C=C/C(=O)NO)ccc2n1CCN(CC)CC` [Pracinostat] (top concentration 10000 nM), for which the “selective drug sensitivity score” value was found to be 3.58.
`Cn1ncc(Cl)c1-c1cc(C(=O)N[C@H](CN)Cc2cccc(F)c2)sc1Cl` [Afuresertib] (top concentration 1000 nM): the “selective drug sensitivity score” value worked out at 2.76.
On to `Cc1cc(-c2nc(-c3ccc(OC(F)(F)F)cc3)no2)nn1Cc1ccnc(N2CCN(C3CC3)CC2)c1` [BAY_87-2243] (top concentration 1000 nM), for which the “selective drug sensitivity score” value was found to be 10.8.
In the case of `CNc1nc(-c2ccc3c(N)n[nH]c3c2)cc(N2C[C@@H](C(=O)NC3CCCCC3)CC[C@H]2C)n1` (top concentration 10000 nM), the “selective drug sensitivity score” value was determined as 6.66.
Take `CN1CC[C@H](c2c(O)cc(O)c3c(=O)cc(-c4ccccc4Cl)oc23)[C@H](O)C1` [Alvocidib] (top concentration 10000 nM): the “selective drug sensitivity score” value is -0.1.
Regarding `Cc1cc2c(C(C)C)c(O)c(O)c(C=O)c2c(O)c1-c1c(C)cc2c(C(C)C)c(O)c(O)c(C=O)c2c1O` [AT-101] (top concentration 100000 nM), the “selective drug sensitivity score” value stood at 4.98.
Turning to `Cc1ccc(C(=O)Nc2cccc(C(F)(F)F)c2)cc1Nc1nc(-c2cccnc2)nc2c1cnn2C` [NVP-BHG712] (top concentration 10000 nM), the “selective drug sensitivity score” value turned out to be 4.48.
In the case of `COC[C@H](NC(=O)c1cnc(C)s1)C(=O)N[C@@H](COC)C(=O)N[C@@H](Cc1ccccc1)C(=O)[C@@]1(C)CO1` [Oprozomib] (top concentration 2500 nM), the “selective drug sensitivity score” value came out at 8.4.
Still for that read-out and setting: as for `Cc1ccc(C(=O)N(CCCN)[C@@H](c2oc3cc(Cl)ccc3c(=O)c2Cc2ccccc2)C(C)C)cc1` (top concentration 100 nM), the figure is -2.64; as for `CCn1c(C(=O)N(C2CC2)C2CC2)cc2c3c(ncn3C)c(Nc3cc(C)n(C)n3)nc21` (top concentration 10000 nM), 1.14; as for `Nc1nc(Cl)nc2c1ncn2[C@@H]1O[C@H](CO)[C@@H](O)[C@@H]1F` [Clofarabine] (top concentration 10000 nM), 3.
For the compound `Cc1ccc(C(=O)Nc2ccc(Oc3cc4cnn(C)c4cc3-c3cn[nH]c3)c(F)c2)c(=O)n1-c1ccc(F)cc1` [Merestinib] (top concentration 1000 nM), the “selective drug sensitivity score” value was -0.62.
With `Nc1ncn([C@@H]2O[C@H](CO)[C@@H](O)[C@H]2O)c(=O)n1` [Azacitidine] (top concentration 10000 nM), the “selective drug sensitivity score” value worked out at 5.14.
`CC(C)c1cc(-c2n[nH]c(=O)n2-c2ccc3c(ccn3C)c2)c(O)cc1O` [Ganetespib] (top concentration 1000 nM): the “selective drug sensitivity score” value amounted to 1.34.
`C[C@]1(c2nc3c(C(N)=O)cccc3[nH]2)CCCN1` [Veliparib] (top concentration 10000 nM): the “selective drug sensitivity score” value was found to be 2.82.
